What was measured:
APOE∗3-Leiden.CETP mice [1] = details: cited from earlier work
APOE∗3-Leiden.CETP mice [2] = experiment: Second efficacy study: body weight, food intake, plasma ALT and AST; type: in vivo, mouse; parameters: Body weight (mean ± SD) / Food intake (mean ± SD): unit not given here; details: NYX-PCSK9i 50 mg/kg BID PO, atorvastatin […]
Text: Animal experiments were approved by the governmental central committee on animal experiments (AVD5010020172064) and TNO’s animal welfare body (TNO-471 and TNO-482). Female APOE∗3-Leiden.CETP transgenic mice (11–16 weeks of age) were bred at the animal facility of TNO-InnoSer (Leiden, The Netherlands). Female animals were used in this study as they are more responsive to dietary cholesterol and fat than males and therefore typically develop atherosclerosis more rapidly than male APOE∗3-Leiden and APOE∗3-Leiden.CETP mice on cholesterol-containing diets ([33], [34]). Although measurements of atherosclerosis were not included as part of the present study, females were used with the prospect in mind that atherosclerosis studies will follow. The mice were housed under standard conditions that included 12 h light-dark cycles and access to a WTD and sterilized tap water ad libitum. Body weight, food intake, and clinical signs of behavior were monitored throughout the studies. […] Time t = 0 (weeks) was designated as the time at which mice were matched into groups after the 3-week run-in period in each efficacy study.
In both studies, blood samples were collected at weekly intervals via tail vein sampling after fasting the mice for 4 h. Blood samples were centrifugated (4500 g at 4°C), and the plasma was collected for the following analyses. Total plasma cholesterol levels were determined using a Cholesterol CHOD-PAP kit according to the manufacturer’s instructions. Plasma HDL-C levels were determined by first precipitating apoB-containing lipids using PEG 6000/glycine and then utilizing the Cholesterol CHOD-PAP kit ([35]). Non-HDL-C levels were determined by subtracting HDL-C levels from total cholesterol levels ([32]). Group-pooled lipoprotein profiles were determined by FPLC analysis using an AKTApurifier 10 FPLC system (GE Healthcare, Chicago, IL). Plasma PCSK9 levels were determined using a Mouse PCSK9 Quantikine ELISA kit as per the manufacturer’s protocol. ALT and AST levels of group-pooled samples were measured using the Roche Reflotron Plus System (Mannheim, Germany).

hepatic LDLR protein = experiment: Second efficacy study: hepatic LDLR protein (Western blotting); type: in vivo, mouse; details: day 35; NYX-PCSK9i 50 mg/kg BID PO, atorvastatin […]

Molecule | hepatic cholesteryl ester content, fecal bile acid content and fecal neutral sterol levels (APOE∗3-Leiden.CETP mice [1]) | Body weight (mean ± SD) (APOE∗3-Leiden.CETP mice [2]; day 0 (baseline)) | Food intake (mean ± SD) (APOE∗3-Leiden.CETP mice [2]; day 0 (baseline)) | Food intake (mean ± SD) (APOE∗3-Leiden.CETP mice [2]; day 7) | Food intake (mean ± SD) (APOE∗3-Leiden.CETP mice [2]; day 14) | Food intake (mean ± SD) (APOE∗3-Leiden.CETP mice [2]; day 21) | Body weight (mean ± SD) (APOE∗3-Leiden.CETP mice [2]; day 28) | Food intake (mean ± SD) (APOE∗3-Leiden.CETP mice [2]; day 28) | Food intake (mean ± SD) (APOE∗3-Leiden.CETP mice [2]; day 35) | increase in hepatic LDLR protein expression (hepatic LDLR protein)
alirocumab: a monoclonal antibody against PCSK9 | affected none of these parameters | – | – | – | – | – | – | – | – | –
CC(C)c1c(C(=O)Nc2ccccc2)c(-c2ccccc2)c(-c2ccc(F)cc2)n1CC[C@@H](O)C[C@@H](O)CC(=O)O [atorvastatin, reference compound] | – | 21.7 ± 0.8 | 3.4 ± 0.3 | 2.5 ± 0.1 | 2.5 ± 0.2 | 2.3 ± 0.0 | 21.8 ± 1.2 | 2.3 ± 0.1 | 2.5 ± 0.1 | no significant effect

— paper PMC9646673, “A Novel, Orally Bioavailable, Small-Molecule Inhibitor of PCSK9 With Significant Cholesterol-Lowering Properties In Vivo” (Journal of Lipid Research, 2022)
